The values that follow come from ChEMBL document CHEMBL4765408, “Design and synthesis of benzylidenecyclohexenones as TrxR inhibitors displaying high anticancer activity and inducing ROS, apoptosis, and autophagy” (Eur J Med Chem, 2020).

For series [1], the system named is MDA-MB-231. The series can be described thus: Antitumor activity against human MDA-MB-231 cells xenografted in BALB/c nude mouse assessed as reduction in tumor volume at 10 to 25 mg/kg, ip measured at 2 days interval for 21 days. The class given is functional, organism-based. As to conditions: dose 10-25 mg/kg, time 2.0 day.
For series [2], the species on record is Rattus norvegicus. The series can be described thus: Inhibition of purified rat liver TrxR measured after 75 mins in presence of NADPH by DTNB based assay.
Series [3] deals with MDA-MB-231. Put plainly: Antiproliferative activity against human MDA-MB-231 cells after 72 hrs by sulforhodamine B assay. The class given is functional, cell-based. As to conditions: MDA-MB-231, 72 h.
Series [4] has as its system MCF7. The series can be described thus: Antiproliferative activity against human MCF7 cells after 72 hrs by sulforhodamine B assay. The class given is functional, cell-based. As to conditions: MCF7, 72 h. A general note: The SRB assay estimates cell density from bound dye.
For series [5], the system named is A549. Put plainly: Antiproliferative activity against human A549 cells after 72 hrs by sulforhodamine B assay. The class given is functional, cell-based. As to conditions: A549, 72 h.
Series [6] deals with KB. The series can be described thus: Antiproliferative activity against human KB cells after 72 hrs by sulforhodamine B assay. The class given is functional, cell-based.
Series [7] can be described thus: Antiproliferative activity against human KB-VIN cells after 72 hrs by sulforhodamine B assay. The class given is functional, cell-based. As to conditions: KBVIN.
Series [8] in a line: Inhibition of TrxR in human MDA-MB-231 cells measured after 72 hrs by colorimetric method. The class given is cell-based.
Series [9] deals with MDA-MB-231. The series can be described thus: Down regulation of TrxR1 expression in human MDA-MB-231 cells measured after 72 hrs by Western blot analysis. The class given is functional, cell-based. (Immunoblotting shows a protein as a band on a membrane.)
Series [10] concerns MDA-MB-231. The series can be described thus: Induction of reactive oxygen species generation in human MDA-MB-231 cells measured after 24 hrs by DCFH-DA probe based flow cytometry. The class given is functional, cell-based.
Series [11] concerns MDA-MB-231. The series can be described thus: Induction of apoptosis in human MDA-MB-231 cells at 0.2 uM measured after 72 hrs by APC-Annexin V/7-AAD staining based flow cytometry relative to control. The class given is functional.
Series [12] concerns MDA-MB-231. The series can be described thus: Induction of apoptosis in human MDA-MB-231 cells at 0.6 uM measured after 72 hrs by APC-Annexin V/7-AAD staining based flow cytometry relative to control. The class given is functional. (In general: Flow cytometry measures light scatter and fluorescence of single cells or particles in a stream.)
The subject of series [13] is MDA-MB-231. Put plainly: Induction of apoptosis in human MDA-MB-231 cells at 1.8 uM measured after 72 hrs by APC-Annexin V/7-AAD staining based flow cytometry relative to control. The class given is functional.
Series [14] relates to MDA-MB-231. Put plainly: Induction of apoptosis in human MDA-MB-231 cells assessed as reduction in Bcl-2 expression measured after 72 hrs by Western blot analysis. The class given is functional, cell-based.
Series [15] relates to MDA-MB-231. Put plainly: Induction of apoptosis in human MDA-MB-231 cells assessed as reduction in Bcl-XL expression measured after 72 hrs by Western blot analysis. The class given is functional, cell-based.
In series [16] the test system is MDA-MB-231. The series can be described thus: Induction of apoptosis in human MDA-MB-231 cells assessed as activation of caspase-3 cleavage at 0.2 to 1.8 uM measured after 72 hrs by Western blot analysis. The class given is functional, cell-based. The note with it: dose 0.2-1.8 µM.
The subject of series [17] is MDA-MB-231. Put plainly: Induction of autophagy in human MDA-MB-231 cells transfected with mRFP-eGFP-LC3 assessed as accumulation of autophagosomes by measuring increase in […] fluorescence measured after 24 hrs by confocal laser scanning microscopy. The class given is functional, cell-based.
Series [18] deals with MDA-MB-231. Put plainly: Induction of autophagy in human MDA-MB-231 cells transfected with mRFP-eGFP-LC3 assessed as accumulation of autolysosome by measuring increase in red fluorescence measured after 24 hrs by confocal laser scanning microscopy. The class given is functional, cell-based.
Series [19] relates to MDA-MB-231. The series can be described thus: Induction of autophagy in human MDA-MB-231 cells transfected with mRFP-eGFP-LC3 assessed as decrease in p62 expression at 0.2 to 1.8 uM measured after 72 hrs by Western blot analysis. The class given is functional, cell-based. As to conditions: dose 0.2-1.8 µM.
In series [20] the test system is MDA-MB-231. The series can be described thus: Induction of autophagy in human MDA-MB-231 cells transfected with mRFP-eGFP-LC3 assessed as decrease in LC3-I expression at 0.2 to 1.8 uM measured after 72 hrs by Western blot analysis. The class given is functional, cell-based. As to conditions: dose 0.2-1.8 µM.
Series [21] deals with MDA-MB-231. Put plainly: Induction of autophagy in human MDA-MB-231 cells transfected with mRFP-eGFP-LC3 assessed as increase in LC3-II expression at 0.2 to 1.8 uM measured after 72 hrs by Western blot analysis. The class given is functional, cell-based. As to conditions: dose 0.2-1.8 µM.
Series [22] in a line: Acute toxicity in ICR mouse assessed as survival at 488.3 mg/kg, ip administered as single dose measured for 14 days. The class given is organism-based. As to conditions: in vivo, time 14 day, read-out: Activity.
Series [23] can be described thus: Acute toxicity in ICR mouse assessed as survival at 390.6 mg/kg, ip administered as single dose measured for 14 days. As to conditions: in vivo, time 14 day, read-out: Activity. The class given is organism-based.
Series [24] can be described thus: Acute toxicity in ICR mouse assessed as survival at 312.5 mg/kg, ip administered as single dose measured for 14 days. The class given is organism-based. The note with it: in vivo, time 14 day, read-out: Activity.
Series [25] is described as follows: Acute toxicity in ICR mouse assessed as survival at 250 mg/kg, ip administered as single dose measured for 14 days. The class given is organism-based. The note with it: in vivo, time 14 day, read-out: Activity.
Series [26] in a line: Acute toxicity in ICR mouse assessed as survival at 200 mg/kg, ip administered as single dose measured for 14 days. The class given is organism-based. The note with it: in vivo, time 14 day, read-out: Activity.
Series [27] can be described thus: Acute toxicity in ICR mouse assessed as change in body weight at 200 mg/kg, ip administered as single dose measured for 14 days. As to conditions: in vivo, 336 h, time 14 day. The class given is organism-based.
The nature of series [28]: Acute toxicity in ICR mouse assessed as abnormality in drinking at 200 mg/kg, ip administered as single dose measured for 14 days. The class given is organism-based. As to conditions: in vivo, 336 h, time 14 day.
The nature of series [29]: Acute toxicity in ICR mouse assessed as abnormality in eating at 200 mg/kg, ip administered as single dose measured for 14 days. The class given is organism-based. As to conditions: in vivo, 336 h, time 14 day.
The nature of series [30]: Acute toxicity in ICR mouse assessed as death at 200 mg/kg, ip administered as single dose measured for 14 days. The class given is organism-based. The note with it: in vivo, 336 h, time 14 day.
Series [31] can be described thus: Acute toxicity in ip dosed ICR mouse administered as single dose measured for 14 days. As to conditions: in vivo, time 14 day. The class given is organism-based.
Series [32] has as its system MDA-MB-231. The series can be described thus: Antitumor activity against human MDA-MB-231 cells xenografted in BALB/c nude mouse assessed as reduction in tumor weight at 25 mg/kg, ip measured at 2 days interval for 21 days relative to control. The class given is functional. Set-up: scale not given: the % may be the effect or the level left. As to conditions: time 2 day.

Series [33] has as its system MDA-MB-231. Put plainly: Down regulation of TrxR1 expression in human MDA-MB-231 cells at 1.8 uM measured after 72 hrs by Western blot analysis. The class given is functional, cell-based.
Series [34] relates to MDA-MB-231. The series can be described thus: Induction of apoptosis in human MDA-MB-231 cells assessed as activation of caspase-3 cleavage at 1.8 uM measured after 72 hrs by Western blot analysis. The class given is functional, cell-based.
The subject of series [35] is MDA-MB-231. Put plainly: Induction of autophagy in human MDA-MB-231 cells transfected with mRFP-eGFP-LC3 assessed as accumulation of autophagosomes by measuring increase in […] fluorescence at 1.8 uM measured after 24 hrs by confocal laser scanning microscopy. The class given is functional, cell-based.
Series [36] relates to MDA-MB-231. The series can be described thus: Induction of autophagy in human MDA-MB-231 cells transfected with mRFP-eGFP-LC3 assessed as accumulation of autolysosome by measuring increase in red fluorescence at 1.8 uM measured after 24 hrs by confocal laser scanning microscopy. The class given is functional, cell-based.
For series [37], the system named is MDA-MB-231. The series can be described thus: Induction of autophagy in human MDA-MB-231 cells transfected with mRFP-eGFP-LC3 assessed as increase in LC3-II expression at 1.8 uM measured after 72 hrs by Western blot analysis. The class given is functional, cell-based.
The test system of series [38] is MDA-MB-231. Put plainly: Antitumor activity against human MDA-MB-231 cells xenografted in BALB/c nude mouse assessed as reduction in tumor weight at 10 mg/kg, ip measured at 2 days interval for 21 days relative to control. The class given is functional. Also noted: scale not given: the % may be the effect or the level left. As to conditions: time 2 day.

Activity calls are given as the source filed them. The rule behind the calls is not given here.

The IC50 is the concentration that inhibits the measured activity by half. As a reminder, the LD50 is the dose expected to kill half of the subjects tested. With `O=C1C=CCC/C1=C\c1ccc(OC(F)(F)F)cc1`, the outcome in [1], in series [10], in series [16], in [19], in series [20] and in series [21] was Active. Besides, in [2], the inhibition entry is “Active”. For the same compound, the IC50 in series [3] amounted to 590 nM; in series [4], 1040 nM; in series [5] it was 440 nM; in series [6], 530 nM; in series [7], 840 nM; in [8] it was 120 nM. Further, the Activity result in [9] was “Dose-dependent effect”; in series [11] it was 20.7%; in [12] it was 45.6%; in [13], 56.8%; in [14] it was “Dose-dependent effect”; in series [15], “Dose-dependent effect”. In addition, the Activity result is “Dose-dependent effect” in [17]; “Dose-dependent effect” in series [18]; “Non-Toxic” in series [27]; “Non-Toxic” in series [28]; “Non-Toxic” in series [29]; “Non-Toxic” in series [30]. Moreover, the Activity in series [32] is 63.3%. Further, the survival at 336 h worked out at 10% in [22]; 30% in series [23]; 70% in series [24]; 90% in series [25]; 100% in series [26]. Further, the LD50 at 336 h in series [31] was found to be 366 mg/kg.

Regarding `COc1cc(/C=C/C(=O)N2CCC=CC2=O)cc(OC)c1OC` [PIPLARTINE], the inhibition entry in [2] is “Active”. The IC50 in series [3] is 3720 nM; in [4], 4400 nM; in series [5], 3200 nM; in series [6] it was 1670 nM; in [7], 7850 nM; in series [8] it was 1520 nM. The result in [33], in series [10], in series [13], in series [34], in [35] and in series [36] was Active. Moreover, the result in series [37] was Active. The Activity in [38] is 44.9%.
